From the NIST ThermoML archive (doi:10.1016/j.tca.2017.12.015)
± gives the expanded uncertainty stated by the source.

Details: Crystal 1; DTA

Row | Structure (SMILES) | Normal melting temperature [°C]
1 | NCC(=O)O [2-aminoacetic acid] | 254.70 ± 2
2 | O=C[C@H](O)[C@@H](O)[C@H](O)[C@H](O)CO [D-glucose] | 162.10 ± 2
3 | OC[C@@H](O)[C@@H](O)[C@H](O)[C@@H](O)CO [D-sorbitol] | 99.70 ± 2
4 | OC[C@H]1O[C@@](CO)(O[C@H]2O[C@H](CO)[C@@H](O)[C@H](O)[C@H]2O)[C@@H](O)[C@@H]1O [D-sucrose] | 190.90 ± 2
5 | Cn1c(=O)c2c(ncn2C)n(C)c1=O [caffeine] | 236.20 ± 2

Same assay, conditions: Crystal 2; DSC

Row | Structure (SMILES) | Triple point temperature [K]
6 | Cn1c(=O)c2c(ncn2C)n(C)c1=O [caffeine] | 432.55 ± 6
